Like-named read-outs stand apart in the source and are kept apart here. Numbered stars: 1 amine (or outer) side, 2 acyl side, 3 side chain; on linkers, the order of the positions; unused ones are H or OH. Square brackets hold non-standard residues; d marks the D form. Side chains are listed from the residue outwards. Peptide text beside a SMILES is read from it. * marks the point of attachment. C20 diacid = O=C(O)CCCCCCCCCCCCCCCCCCC(=O)*; γGlu = O=C(O)[C@H](CCC(=O)[*:2])N[*:1]; AEEA = NCCOCCOCC(=O)O; Aib = CC(C)(N)C(=O)O
Tests used:
[1] = Turbidity of crude library peptides (absorbance at 600 nm); assay type: physicochemical; conditions: Physical stability of peptides
In short: (§1)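 Fibril formation is scored as average ThT fluorescence from duplicate samples monitored for 72 h at 40° C with shaking stress. Turbidity is the absorbance at 600 nm taken before heating. Peptide concentration was 267 μM at pH 4.0 or pH 7.0.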

[2] = Fibril formation of crude library peptides (Thioflavin T); assay type: physicochemical; parameters: key: average ThT fluorescence emission at 480 nm (ex 450 nm), raw units; conditions: Physical stability of peptides
In short: as §1

GLP1R = GLP1R (Homo sapiens, UniProt P43220); test: hGLP1R potency, cAMP accumulation in CHO-K1 cells stably overexpressing hGLP1R; assay type: cell-based; parameters: host or cells: CHO-K1; conditions: for SCTR EC50/GLP1R EC50 ratio: selectivity for hGLP1R over hSCTR, cAMP accumulation in CHO-K1 cells; for Selectivity: SCTR EC50/GLP1R EC50 ratio
In short: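 In the presence of 0.5 mM IBMX, compounds stimulated the cells for 30 minutes at room temperature. Accumulated cAMP was then detected by TR-FRET, with EC50 values fitted by variable-slope nonlinear regression.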

SCTR = SCTR (Homo sapiens, UniProt P47872); test: hSCTR potency, cAMP accumulation in CHO-K1 cells stably overexpressing hSCTR; assay type: cell-based; parameters: alternatively Euroscreen ES-712-AF; FAST-0161L; host or cells: CHO-K1
In short: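 In this Gs cAMP assay, stably transfected CHO-K1 hSCTR cells were stimulated at room temperature for 30 min in IBMX-containing buffer. Time-resolved FRET gave the signal. Replicates were increased when the top concentration changed or EC50 values differed 5-fold.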

[3] = cAMP accumulation, CHO-K1 cells overexpressing hGLP1R, read-out: hGLP1R pEC50 (converted)
[4] = cAMP accumulation, CHO-K1 cells overexpressing hSCTR, read-out: hSCTR pEC50 (converted)
[5] = cAMP accumulation, CHO-K1 cells overexpressing hGLP1R, read-out: pEC50 hGLPR1 (converted)
[6] = cAMP accumulation, CHO-K1 cells overexpressing hSCTR, read-out: pEC50 hSCTR (converted)

GLP1R, sequence (P43220 24-463): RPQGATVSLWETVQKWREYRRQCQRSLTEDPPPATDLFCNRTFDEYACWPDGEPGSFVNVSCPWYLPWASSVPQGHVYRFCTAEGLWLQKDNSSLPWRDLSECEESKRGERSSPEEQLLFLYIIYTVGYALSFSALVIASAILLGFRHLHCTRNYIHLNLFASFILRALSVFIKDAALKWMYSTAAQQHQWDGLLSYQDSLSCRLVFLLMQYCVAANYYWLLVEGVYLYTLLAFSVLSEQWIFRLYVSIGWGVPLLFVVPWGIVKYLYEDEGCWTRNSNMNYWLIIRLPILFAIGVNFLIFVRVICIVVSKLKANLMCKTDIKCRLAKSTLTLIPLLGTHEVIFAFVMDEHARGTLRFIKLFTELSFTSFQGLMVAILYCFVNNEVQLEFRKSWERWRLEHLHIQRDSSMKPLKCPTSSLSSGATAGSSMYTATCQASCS
SCTR, sequence (P47872 23-440): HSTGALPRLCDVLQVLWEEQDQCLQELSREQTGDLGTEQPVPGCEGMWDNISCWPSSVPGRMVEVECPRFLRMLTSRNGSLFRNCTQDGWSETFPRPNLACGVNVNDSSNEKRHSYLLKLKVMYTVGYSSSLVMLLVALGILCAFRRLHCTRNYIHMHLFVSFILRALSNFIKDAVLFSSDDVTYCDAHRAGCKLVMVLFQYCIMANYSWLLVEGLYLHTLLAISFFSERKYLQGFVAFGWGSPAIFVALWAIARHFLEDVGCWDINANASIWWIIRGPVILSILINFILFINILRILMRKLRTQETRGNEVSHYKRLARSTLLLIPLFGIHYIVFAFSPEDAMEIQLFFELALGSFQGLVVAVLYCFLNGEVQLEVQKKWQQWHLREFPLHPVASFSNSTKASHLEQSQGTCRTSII

SMILES	Turbidity (pH 7) [1]	Fibril formation [2]	EC50 (GLP1R; [3]) [nM]	SCTR EC50/GLP1R EC50 ratio (GLP1R)	EC50 (SCTR; [4]) [nM]	Selectivity (GLP1R)	EC50 (GLP1R; [5]) [nM]	EC50 (SCTR; [6]) [nM]	EC50 (GLP1R) [nM]	EC50 (SCTR) [nM]
CC(C)C[C@H](NC(=O)[C@H](Cc1ccccc1)NC(=O)[C@H](CCCNC(=N)N)NC(=O)[C@H](CCC(N)=O)NC(=O)[C@H](CC(N)=O)NC(=O)C(C)(C)NC(=O)[C@H](C)NC(=O)[C@H](CCC(=O)O)NC(=O)[C@H](CCC(=O)O)NC(=O)[C@H](CCCCNC(=O)COCCOCCNC(=O)COCCOCCNC(=O)CC[C@H](NC(=O)CCCCCCCCCCCCCCCCCCC(=O)O)C(=O)O)NC(=O)[C@H](CC(C)C)NC(=O)[C@H](Cc1ccc(O)cc1)NC(=O)[C@H](CO)NC(=O)[C@@H](NC(=O)[C@H](CC(=O)O)NC(=O)[C@H](CO)NC(=O)[C@@H](NC(=O)[C@H](Cc1ccccc1)NC(=O)[C@@H](NC(=O)CNC(=O)[C@H](CCC(=O)O)NC(=O)C(C)(C)NC(=O)[C@@H](N)Cc1c[nH]cn1)[C@@H](C)O)[C@@H](C)O)C(C)C)C(=O)N[C@@H](CCC(=O)O)C(=O)N[C@@H](Cc1c[nH]cn1)C(=O)N[C@@H](CC(C)C)C(=O)N[C@H](C(N)=O)C(C)C [compound 131] (H-H[Aib]EGTFTSDVSYLK([AEEA-AEEA-γGlu-C20 diacid])EEA[Aib]NQRFLEHLV-NH2)	0.09	2709	0.00501	996093	5010	–	–	–	–	–
CC(C)C[C@H](NC(=O)[C@H](Cc1ccccc1)NC(=O)[C@H](CCCNC(=N)N)NC(=O)[C@H](CCC(N)=O)NC(=O)[C@H](CCC(=O)O)NC(=O)[C@H](C)NC(=O)[C@H](C)NC(=O)[C@H](CCC(=O)O)NC(=O)[C@H](CCC(=O)O)NC(=O)[C@H](CCCCNC(=O)COCCOCCNC(=O)COCCOCCNC(=O)CC[C@H](NC(=O)CCCCCCCCCCCCCCCCCCC(=O)O)C(=O)O)NC(=O)[C@H](CC(C)C)NC(=O)[C@H](CCCNC(=N)N)NC(=O)[C@H](CO)NC(=O)[C@@H](NC(=O)[C@H](CC(=O)O)NC(=O)[C@H](CO)NC(=O)[C@@H](NC(=O)[C@H](Cc1ccccc1)NC(=O)[C@@H](NC(=O)CNC(=O)[C@H](CCC(=O)O)NC(=O)C(C)(C)NC(=O)[C@@H](N)Cc1c[nH]cn1)[C@@H](C)O)[C@@H](C)O)C(C)C)C(=O)N[C@@H](CCC(=O)O)C(=O)N[C@@H](Cc1c[nH]cn1)C(=O)N[C@@H](CC(C)C)C(=O)N[C@H](C(N)=O)C(C)C [compound 22] (H-H[Aib]EGTFTSDVSRLK([AEEA-AEEA-γGlu-C20 diacid])EEAAEQRFLEHLV-NH2)	0.08	16453	–	–	–	20678	0.02	398	–	–
CC(C)C[C@H](NC(=O)[C@H](Cc1ccccc1)NC(=O)[C@H](CCCNC(=N)N)NC(=O)[C@H](CCC(N)=O)NC(=O)[C@@H](NC(=O)[C@H](C)NC(=O)[C@H](C)NC(=O)[C@@H](NC(=O)[C@H](CCC(=O)O)NC(=O)[C@H](CCCCNC(=O)COCCOCCNC(=O)COCCOCCNC(=O)CC[C@H](NC(=O)CCCCCCCCCCCCCCCCCCC(=O)O)C(=O)O)NC(=O)[C@H](CC(C)C)NC(=O)[C@H](Cc1ccc(O)cc1)NC(=O)[C@H](CO)NC(=O)[C@@H](NC(=O)[C@H](CC(=O)O)NC(=O)[C@H](CO)NC(=O)[C@@H](NC(=O)[C@H](Cc1ccccc1)NC(=O)[C@@H](NC(=O)CNC(=O)[C@H](CCC(=O)O)NC(=O)C(C)(C)NC(=O)[C@@H](N)Cc1c[nH]cn1)[C@@H](C)O)[C@@H](C)O)C(C)C)[C@@H](C)O)[C@@H](C)O)C(=O)N[C@@H](CCC(=O)O)C(=O)N[C@@H](Cc1c[nH]cn1)C(=O)N[C@@H](CC(C)C)C(=O)N[C@H](C(N)=O)C(C)C [compound 4] (H-H[Aib]EGTFTSDVSYLK([AEEA-AEEA-γGlu-C20 diacid])ETAATQRFLEHLV-NH2)	0.08	32222	–	–	–	13928	–	–	0.00794	100
CC(C)C[C@H](NC(=O)[C@H](Cc1ccccc1)NC(=O)[C@H](CCCNC(=N)N)NC(=O)[C@H](CCC(N)=O)NC(=O)C(C)(C)NC(=O)[C@H](C)NC(=O)[C@H](C)NC(=O)[C@@H](NC(=O)[C@H](CCC(=O)O)NC(=O)[C@H](CCCCNC(=O)COCCOCCNC(=O)COCCOCCNC(=O)CC[C@H](NC(=O)CCCCCCCCCCCCCCCCCCC(=O)O)C(=O)O)NC(=O)[C@H](CC(C)C)NC(=O)[C@H](CCCNC(=N)N)NC(=O)[C@H](CO)NC(=O)[C@@H](NC(=O)[C@H](CC(=O)O)NC(=O)[C@H](CO)NC(=O)[C@@H](NC(=O)[C@H](Cc1ccccc1)NC(=O)[C@@H](NC(=O)CNC(=O)[C@H](CCC(=O)O)NC(=O)C(C)(C)NC(=O)[C@@H](N)Cc1c[nH]cn1)[C@@H](C)O)[C@@H](C)O)C(C)C)[C@@H](C)O)C(=O)N[C@@H](CCC(=O)O)C(=O)N[C@@H](Cc1c[nH]cn1)C(=O)N[C@@H](CC(C)C)C(=O)N[C@H](C(N)=O)C(C)C [compound 85] (H-H[Aib]EGTFTSDVSRLK([AEEA-AEEA-γGlu-C20 diacid])ETAA[Aib]QRFLEHLV-NH2)	0.09	19223	0.126	12682	1580	–	–	–	–	–
CC(C)C[C@H](NC(=O)[C@H](Cc1ccccc1)NC(=O)[C@H](CCCNC(=N)N)NC(=O)[C@H](CCC(N)=O)NC(=O)[C@@H](NC(=O)[C@H](C)NC(=O)[C@H](C)NC(=O)[C@H](CCC(=O)O)NC(=O)[C@H](CCC(=O)O)NC(=O)[C@H](CCCCNC(=O)COCCOCCNC(=O)COCCOCCNC(=O)CC[C@H](NC(=O)CCCCCCCCCCCCCCCCCCC(=O)O)C(=O)O)NC(=O)[C@H](CC(C)C)NC(=O)[C@H](CCC(=O)O)NC(=O)[C@H](CO)NC(=O)[C@@H](NC(=O)[C@H](CC(=O)O)NC(=O)[C@H](CO)NC(=O)[C@@H](NC(=O)[C@H](Cc1ccccc1)NC(=O)[C@@H](NC(=O)CNC(=O)[C@H](CCC(=O)O)NC(=O)C(C)(C)NC(=O)[C@@H](N)Cc1c[nH]cn1)[C@@H](C)O)[C@@H](C)O)C(C)C)[C@@H](C)O)C(=O)N[C@@H](CCC(=O)O)C(=O)N[C@@H](Cc1c[nH]cn1)C(=O)N[C@@H](CC(C)C)C(=O)N[C@H](C(N)=O)C(C)C [compound 55] (H-H[Aib]EGTFTSDVSELK([AEEA-AEEA-γGlu-C20 diacid])EEAATQRFLEHLV-NH2)	0.09	6162	–	–	–	16315	0.01	158	–	–
CC[C@H](C)[C@H](NC(=O)[C@H](Cc1ccccc1)NC(=O)[C@H](CCCNC(=N)N)NC(=O)[C@H](CCC(N)=O)NC(=O)[C@H](CC(C)C)NC(=O)[C@H](C)NC(=O)[C@H](C)NC(=O)CNC(=O)[C@H](CCC(=O)O)NC(=O)[C@H](CC(C)C)NC(=O)[C@H](CC(C)C)NC(=O)[C@H](CCC(=O)O)NC(=O)[C@H](CO)NC(=O)[C@@H](NC(=O)[C@H](CC(=O)O)NC(=O)[C@H](CO)NC(=O)[C@@H](NC(=O)[C@H](Cc1ccccc1)NC(=O)[C@@H](NC(=O)CNC(=O)[C@H](CCC(=O)O)NC(=O)C(C)(C)NC(=O)[C@@H](N)Cc1c[nH]cn1)[C@@H](C)O)[C@@H](C)O)C(C)C)C(=O)N[C@@H](CCC(N)=O)C(=O)N[C@@H](Cc1c[nH]c2ccccc12)C(=O)N[C@@H](CC(C)C)C(=O)N[C@H](C(N)=O)C(C)C [compound 180] (H-H[Aib]EGTFTSDVSELLEGAALQRFIQWLV-NH2)	0.12	53478	0.0158	11144	200	–	–	–	–	–
CC(C)C[C@H](NC(=O)[C@H](Cc1ccccc1)NC(=O)[C@H](CCCNC(=N)N)NC(=O)[C@H](CCC(N)=O)NC(=O)C(C)(C)NC(=O)[C@H](C)NC(=O)[C@H](C)NC(=O)[C@H](CCC(=O)O)NC(=O)[C@H](CCC(=O)O)NC(=O)[C@H](CCCCNC(=O)COCCOCCNC(=O)COCCOCCNC(=O)CC[C@H](NC(=O)CCCCCCCCCCCCCCCCCCC(=O)O)C(=O)O)NC(=O)[C@H](CC(C)C)NC(=O)[C@@H](NC(=O)[C@H](CO)NC(=O)[C@@H](NC(=O)[C@H](CC(=O)O)NC(=O)[C@H](CO)NC(=O)[C@@H](NC(=O)[C@H](Cc1ccccc1)NC(=O)[C@@H](NC(=O)CNC(=O)[C@H](CCC(=O)O)NC(=O)C(C)(C)NC(=O)[C@@H](N)Cc1c[nH]cn1)[C@@H](C)O)[C@@H](C)O)C(C)C)C(C)C)C(=O)N[C@@H](CCC(=O)O)C(=O)N[C@@H](Cc1c[nH]cn1)C(=O)N[C@@H](CC(C)C)C(=O)N[C@H](C(N)=O)C(C)C [compound 35] (H-H[Aib]EGTFTSDVSVLK([AEEA-AEEA-γGlu-C20 diacid])EEAA[Aib]QRFLEHLV-NH2)	0.08	8261	–	–	–	43142	0.0158	794	–	–
